Molecules are shown by their SMILES.

Data on 2 compounds can be found in patent US20070117770A1, “Human ribosomal DNA (rDNA) and ribosomal RNA (rRNA) nucleic acids and uses thereof” (Cylene Pharmaceuticals, Inc., priority 2005, published 2007).

Holding throughout (assay): Protein kinase inhibition assay
Type in all cases: biochemical

For test [1], the target named is BRK(h) (Homo sapiens, UniProt Q13882). As to conditions: read-out: percent residual activity of BRK(h). How it is done: (§1) Certain compounds were tested for activity in protein kinase inhibition assays. All substrates were dissolved and diluted to working stocks in de-ionized water, apart from histone H1 (10× working stock in 20 mM MOPS pH 7.0), PDKtide (10× working stock in 50 mM Tris pH 7.0) ATF2 (which is typically stored at a 20× working stock in 50 mM Tris pH 7.5, 150 mM NaCl, 0.1 mM EGTA, 0.03% Brij-35, 50% glycerol, 1 mM benzamidine, 0.2 mM PMSF and 0.1% R-mercaptoethanol), KKLNRTLSFAEPG (SEQ ID NO:203) and RRRLSFAEPG (SEQ ID NO:204) (50 mM HEPES pH 7.4) and GGEEEEYFELVKKKK (SEQ ID NO:205) (20 mM MOPS pH 7.0). All kinases were pre-diluted to a 10× working concentration prior to addition into the assay. The composition of the dilution buffer for each kinase is detailed below.
(§2) In a final reaction volume of 25 μl, BRK (h) (5-10 mU) is incubated with 8 mM MOPS pH 7.0, 0.2 mM EDTA, 5 mM MnCl2, 0.1 mg/ml poly (Glu, Tyr) 4:1, 10 mM MgAcetate and [gamma-33P-ATP] (specific activity approx. 500 cpm/pmol, concentration as required). The reaction is initiated by the addition of the MgATP mix. After incubation for 40 minutes at room temperature, the reaction is stopped by the addition of 5 μl of a 3% phosphoric acid solution. 10 μl of the reaction is then spotted onto a Filtermat A and washed three times for 5 minutes in 75 mM phosphoric acid and once in methanol prior to drying and scintillation counting.

Test [2] concerns the target cKit(D816V)(h) (Homo sapiens, UniProt P10721, D816V). As to conditions: read-out: percent residual activity of cKit(D816V)(h). How it is done: as §1
In a final reaction volume of 25 μl, cKit (D816V) (h) (5-10 mU) is incubated with 8 mM MOPS pH 7.0, 0.2 mM EDTA, 10 mM MnCl2, 0.1 mg/ml poly(Glu, Tyr) 4:1, 10 mM MgAcetate and [gamma-33P-ATP] (specific activity approx. 500 cpm/pmol, concentration as required). The reaction is initiated by the addition of the MgATP mix. After incubation for 40 minutes at room temperature, the reaction is stopped by the addition of 5 μl of a 3% phosphoric acid solution. […]

The target of test [3] is EphA4(h) (Homo sapiens, UniProt P54764). As to conditions: read-out: percent residual activity of EphA4(h). How it is done:
as §1
as §2, with “μl, EphA4” for “μl, BRK”, “EDTA, 10” for “EDTA, 5”, “mg/ml poly(Glu,” for “mg/ml poly (Glu,”, “and [y-33P-ATP]” for “and [gamma-33P-ATP]”

Test [4] deals with ErbB4(h) (Homo sapiens, UniProt Q15303). As to conditions: read-out: percent residual activity of ErbB4(h). How it is done: as §1
as §2, with “μl, ErbB4” for “μl, BRK”, “EDTA, 2.5” for “EDTA, 5”, “mg/ml poly(Glu,” for “mg/ml poly (Glu,”, “10 ll” for “10 μl”

Test [5] addresses JNK3(h) (Homo sapiens, UniProt P53779). As to conditions: read-out: percent residual activity of JNK3(h). Here is the method: as §1
as §2, with “JNK3” for “BRK”, “50” for “8”, “Tris” for “MOPS”, “7.5, 0.1” for “7.0, 0.2”, “EGTA, 0.1% R-mercaptoethanol, 250 μM peptide,” for “EDTA, 5 mM MnCl2, 0.1 mg/ml poly (Glu, Tyr) 4:1,”, “P30 filtermat” for “Filtermat A”

Test [6] addresses PKCα(h) (Homo sapiens, UniProt P17252). As to conditions: read-out: percent residual activity of PKCα(h). How it is done:
as §1
In a final reaction volume of 25 μl, PKCα (h) (5-10 mU) is incubated with 20 mM HEPES pH 7.4, 0.03% Triton X-100, […], 0.1 mg/ml phosphatidylserine, 10 μg/ml diacylglycerol, 0.1 mg/ml histone H1, 10 mM MgAcetate and [gamma-33P-ATP] (specific activity approx. 500 cpm/pmol, concentration as required). The reaction is initiated by the addition of the MgATP mix. After incubation for 40 minutes at room temperature, the reaction is stopped by the addition of 5 μl of a 3% phosphoric acid solution. […]

Sequence of EphA4(h) (P54764 20-986): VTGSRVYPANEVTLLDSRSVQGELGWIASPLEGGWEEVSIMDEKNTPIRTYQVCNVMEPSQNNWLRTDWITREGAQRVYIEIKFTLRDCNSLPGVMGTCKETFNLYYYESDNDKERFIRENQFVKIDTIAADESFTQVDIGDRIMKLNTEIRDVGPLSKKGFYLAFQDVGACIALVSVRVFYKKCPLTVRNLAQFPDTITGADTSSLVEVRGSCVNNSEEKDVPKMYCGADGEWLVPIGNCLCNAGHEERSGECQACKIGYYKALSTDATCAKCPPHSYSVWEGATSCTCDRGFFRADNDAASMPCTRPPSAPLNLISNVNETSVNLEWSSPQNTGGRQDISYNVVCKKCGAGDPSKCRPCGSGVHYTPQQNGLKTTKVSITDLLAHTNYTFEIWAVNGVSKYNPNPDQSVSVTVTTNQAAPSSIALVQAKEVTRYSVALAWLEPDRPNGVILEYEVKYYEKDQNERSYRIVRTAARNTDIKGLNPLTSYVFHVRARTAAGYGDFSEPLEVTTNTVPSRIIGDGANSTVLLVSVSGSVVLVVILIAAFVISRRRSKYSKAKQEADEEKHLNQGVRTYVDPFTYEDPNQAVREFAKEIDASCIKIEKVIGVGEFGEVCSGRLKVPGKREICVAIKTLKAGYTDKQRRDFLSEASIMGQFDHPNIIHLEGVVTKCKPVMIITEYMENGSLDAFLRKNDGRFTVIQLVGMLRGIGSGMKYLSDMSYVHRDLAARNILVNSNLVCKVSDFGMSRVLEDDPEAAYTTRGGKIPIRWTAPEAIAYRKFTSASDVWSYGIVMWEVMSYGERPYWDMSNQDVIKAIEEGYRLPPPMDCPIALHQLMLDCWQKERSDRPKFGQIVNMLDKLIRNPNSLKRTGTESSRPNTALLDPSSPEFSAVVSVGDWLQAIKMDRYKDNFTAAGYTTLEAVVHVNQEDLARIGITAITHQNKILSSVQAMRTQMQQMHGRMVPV
Sequence of BRK(h) (Q13882 whole entry): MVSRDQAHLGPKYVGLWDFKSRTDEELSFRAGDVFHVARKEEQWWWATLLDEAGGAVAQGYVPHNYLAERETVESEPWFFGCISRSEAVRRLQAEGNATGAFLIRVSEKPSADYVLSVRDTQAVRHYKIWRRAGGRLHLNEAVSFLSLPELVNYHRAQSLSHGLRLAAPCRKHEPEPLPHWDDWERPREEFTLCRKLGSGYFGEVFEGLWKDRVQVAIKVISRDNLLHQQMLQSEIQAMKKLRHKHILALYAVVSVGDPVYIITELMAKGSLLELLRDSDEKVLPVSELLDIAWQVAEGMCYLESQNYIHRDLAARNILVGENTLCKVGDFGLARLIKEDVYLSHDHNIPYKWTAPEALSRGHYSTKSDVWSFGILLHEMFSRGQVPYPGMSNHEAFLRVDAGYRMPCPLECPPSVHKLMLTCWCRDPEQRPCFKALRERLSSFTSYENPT
Sequence of JNK3(h) (P53779 whole entry): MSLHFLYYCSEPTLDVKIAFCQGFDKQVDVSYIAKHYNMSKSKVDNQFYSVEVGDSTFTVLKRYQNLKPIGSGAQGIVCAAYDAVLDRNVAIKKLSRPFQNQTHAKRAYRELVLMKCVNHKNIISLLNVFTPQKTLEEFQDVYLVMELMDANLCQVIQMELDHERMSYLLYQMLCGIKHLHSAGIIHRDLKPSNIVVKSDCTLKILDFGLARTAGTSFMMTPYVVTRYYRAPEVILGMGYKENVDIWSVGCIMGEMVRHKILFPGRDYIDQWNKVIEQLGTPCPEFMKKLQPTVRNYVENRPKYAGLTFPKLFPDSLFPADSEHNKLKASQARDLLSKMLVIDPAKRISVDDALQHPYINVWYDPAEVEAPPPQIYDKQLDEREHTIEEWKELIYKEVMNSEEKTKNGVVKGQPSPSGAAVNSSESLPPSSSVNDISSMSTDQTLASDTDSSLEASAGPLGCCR
Sequence of ErbB4(h) (Q15303 26-1308): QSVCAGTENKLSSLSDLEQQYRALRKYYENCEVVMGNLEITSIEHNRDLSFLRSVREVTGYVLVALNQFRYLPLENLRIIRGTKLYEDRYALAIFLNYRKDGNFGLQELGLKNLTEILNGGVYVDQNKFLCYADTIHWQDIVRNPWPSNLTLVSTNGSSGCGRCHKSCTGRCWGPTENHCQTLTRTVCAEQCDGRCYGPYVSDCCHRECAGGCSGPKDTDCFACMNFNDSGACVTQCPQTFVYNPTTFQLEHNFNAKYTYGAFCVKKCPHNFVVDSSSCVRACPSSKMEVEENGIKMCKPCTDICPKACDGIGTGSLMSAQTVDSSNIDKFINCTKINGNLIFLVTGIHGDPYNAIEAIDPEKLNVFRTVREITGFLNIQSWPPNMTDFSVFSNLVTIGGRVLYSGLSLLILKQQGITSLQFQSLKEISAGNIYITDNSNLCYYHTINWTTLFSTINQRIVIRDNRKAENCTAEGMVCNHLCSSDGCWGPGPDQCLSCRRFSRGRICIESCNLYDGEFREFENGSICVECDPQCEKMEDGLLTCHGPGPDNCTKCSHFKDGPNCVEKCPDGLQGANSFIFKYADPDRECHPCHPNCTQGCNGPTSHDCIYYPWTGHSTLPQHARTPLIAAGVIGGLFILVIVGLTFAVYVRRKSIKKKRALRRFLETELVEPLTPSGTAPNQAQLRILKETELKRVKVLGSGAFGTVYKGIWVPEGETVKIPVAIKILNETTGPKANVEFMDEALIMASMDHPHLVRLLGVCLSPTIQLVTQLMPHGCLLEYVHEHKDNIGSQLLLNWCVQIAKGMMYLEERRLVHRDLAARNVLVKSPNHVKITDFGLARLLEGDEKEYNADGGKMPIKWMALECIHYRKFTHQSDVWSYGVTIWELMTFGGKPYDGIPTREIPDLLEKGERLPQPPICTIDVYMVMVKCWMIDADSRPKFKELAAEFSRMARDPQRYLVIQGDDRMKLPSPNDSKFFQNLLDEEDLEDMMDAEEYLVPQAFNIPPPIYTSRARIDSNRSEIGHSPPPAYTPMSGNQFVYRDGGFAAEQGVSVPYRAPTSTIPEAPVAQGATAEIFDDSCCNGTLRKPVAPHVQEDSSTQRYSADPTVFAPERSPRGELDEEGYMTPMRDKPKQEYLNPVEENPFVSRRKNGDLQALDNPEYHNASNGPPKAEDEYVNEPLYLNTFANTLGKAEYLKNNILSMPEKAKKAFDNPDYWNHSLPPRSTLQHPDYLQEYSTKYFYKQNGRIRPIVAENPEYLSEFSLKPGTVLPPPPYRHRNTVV
Sequence of cKit(D816V)(h) (P10721 26-976 D816V): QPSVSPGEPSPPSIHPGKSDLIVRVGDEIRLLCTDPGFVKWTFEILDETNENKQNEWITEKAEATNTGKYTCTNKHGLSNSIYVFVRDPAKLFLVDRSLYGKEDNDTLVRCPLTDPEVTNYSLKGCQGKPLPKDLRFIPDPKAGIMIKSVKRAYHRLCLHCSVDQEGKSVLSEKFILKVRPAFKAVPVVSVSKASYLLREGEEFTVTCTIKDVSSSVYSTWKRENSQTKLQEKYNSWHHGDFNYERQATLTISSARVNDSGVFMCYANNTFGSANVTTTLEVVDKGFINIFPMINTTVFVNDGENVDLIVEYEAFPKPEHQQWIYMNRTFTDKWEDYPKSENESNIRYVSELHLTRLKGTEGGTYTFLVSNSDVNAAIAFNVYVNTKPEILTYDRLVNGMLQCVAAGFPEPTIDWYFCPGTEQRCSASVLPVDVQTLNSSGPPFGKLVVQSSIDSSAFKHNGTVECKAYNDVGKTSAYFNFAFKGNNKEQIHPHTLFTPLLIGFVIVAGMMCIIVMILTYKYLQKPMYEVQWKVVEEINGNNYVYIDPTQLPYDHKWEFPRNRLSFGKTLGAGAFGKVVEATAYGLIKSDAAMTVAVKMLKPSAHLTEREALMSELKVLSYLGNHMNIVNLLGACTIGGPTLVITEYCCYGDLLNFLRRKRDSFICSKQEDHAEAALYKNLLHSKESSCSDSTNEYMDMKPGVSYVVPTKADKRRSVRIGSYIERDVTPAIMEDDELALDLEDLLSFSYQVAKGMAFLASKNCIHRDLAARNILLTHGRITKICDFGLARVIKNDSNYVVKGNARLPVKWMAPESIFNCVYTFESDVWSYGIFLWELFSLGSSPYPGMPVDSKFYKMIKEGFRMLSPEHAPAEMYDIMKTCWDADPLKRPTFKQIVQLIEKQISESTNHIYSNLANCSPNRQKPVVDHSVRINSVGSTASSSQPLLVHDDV

Consider `CN1CCCC1CCNC(=O)c1cn2c3c(c(N4CCC(c5cnccn5)C4)c(F)cc3c1=O)Oc1cc3ccccc3cc1-2` (stereo not drawn) [Compound A-1], for which the remaining activity at 2.5 µM stood at 131% in test [1]; 104% in test [2]; 107% in test [3]; 92% in test [4]; 97% in test [5]; 90% in test [6].
For the compound `CC(=O)N1CCN(c2ccc3c(=O)c(C(=O)NCCN4CCCC4)c4n(C)c5ccccc5n4c3n2)CC1` [Compound B-1], the remaining activity at 2.5 µM worked out at 98% in test [1]; 103% in test [2]; 134% in test [3]; 107% in test [4]; 98% in test [5]; 101% in test [6].
